# Experimental data: PubChem BioAssay (NCI)
# Values joined by “and” are separate entries in the source; they are usually repeats but may differ in a detail not shown here. Identical values can stand only once.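 Each compound was tested at five concentrations against cells in 96-well plates for 48 hours. GI50: concentration for 50% inhibition of growth. Definition used: TGI = concentration required for complete inhibition of growth.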
# Key:
# Experiment in all cases: growth of human tumour cells (NCI), 48 h
# A498 renal = system: A498 renal
# HCT-15 colon = system: HCT-15 colon
# HOP-92 NSCLC = system: HOP-92 NSCLC
# IGROV1 ovarian = system: IGROV1 ovarian
# K-562 leukemia = system: K-562 leukemia
# MCF7 breast = system: MCF7 breast
# MOLT-4 leukemia = system: MOLT-4 leukemia
# RXF 393 renal = system: RXF 393 renal
# SK-MEL-28 melanoma = system: SK-MEL-28 melanoma
# SK-MEL-5 melanoma = system: SK-MEL-5 melanoma
Compound,TGI (A498 renal),TGI (HCT-15 colon),TGI (HOP-92 NSCLC),TGI (IGROV1 ovarian),TGI (K-562 leukemia),TGI (MCF7 breast),TGI (MOLT-4 leukemia),TGI (RXF 393 renal),TGI (SK-MEL-28 melanoma),TGI (SK-MEL-5 melanoma),GI50 (HCT-15 colon)
CN(C)Cc1cc(N=Nc2ccc(Cl)c(Cl)c2)ccc1O,23.9 µM,19.1 µM,22.3 µM,15.9 µM,14.1 µM,18.1 µM,24.4 µM,10.7 µM,26.5 µM,25.2 µM,–
O=C(CSc1nc2ccc(I)cc2c(=O)n1Cc1ccccc1)Nc1ccc(Br)cc1,68.1 µM,> 100 µM,> 100 µM,> 100 µM,> 100 µM,> 100 µM,> 100 µM,> 100 µM,> 100 µM,> 100 µM,–
CN(C)Cc1cc(C(=O)/C=C/c2ccc(/C=C/C(=O)c3cc(CN(C)C)c(O)c(CN(C)C)c3)cc2)cc(CN(C)C)c1O,> 100 µM,> 100 µM,56.4 µM,> 100 µM,> 100 µM,> 100 µM,68.6 µM,> 100 µM,> 100 µM,> 100 µM,–
CC(=O)C(=C(I)I)c1ccccc1,40.7 µM,> 100 µM,64.5 µM,54.7 µM,53.5 µM,46.8 µM,43.2 µM,46.4 µM,38.7 µM,28.5 µM,–
c1ccc(N=NNNc2ccc(-c3nc4ccccc4[nH]3)cc2)cc1,> 100 µM,> 100 µM,> 100 µM,> 100 µM,94.6 µM,69.9 µM,36.8 µM,55.8 µM,> 100 µM,> 100 µM,–
COc1cc2[nH]c(-c3ccccc3)cc(=O)c2cc1OC,> 100 µM,97.9 µM,> 100 µM,> 100 µM,> 100 µM,> 28.8 µM,> 100 µM,> 72.7 µM,> 100 µM,54.4 µM,–
COc1cc2c(cc1OCCCC(=O)Nc1cc(C(=O)Nc3cc(C(=O)NCCCN(C)C)n(C)n3)n(C)n1)N=CC1CCCN1C2=O (stereo unspecified),59.2 µM,37.6 µM,33.2 µM,28.2 µM,27.7 µM,29.5 µM,18.9 µM,33.6 µM,30.4 µM,30.1 µM,–
CC(=O)O[C@H]1/C(=C/c2ccc(N(C)C)cc2)C[C@H]2[C@@H]3CC=C4C[C@@H](N5CCCC5)CC[C@]4(C)[C@H]3CC[C@]12C,> 100 µM,> 100 µM,> 100 µM,> 100 µM,> 100 µM,> 100 µM,> 100 µM,> 100 µM,> 100 µM,> 100 µM,–
O=c1[nH]cnc2c1ncn2[C@H]1CO[C@@H](CO)[C@@H]1O,> 100 µM,> 100 µM,> 100 µM,> 100 µM,> 100 µM,> 100 µM,> 100 µM,> 100 µM,> 100 µM,> 100 µM,–
CC(=O)Oc1ccc2c(c1)CC[C@@H]1C2[C@@H](O[N+](=O)[O-])C[C@@]2(C)C1CC[C@@H]2O (stereo partly specified),72.5 µM,> 100 µM,> 100 µM,> 100 µM,72.1 µM,> 90.3 µM,> 85.8 µM,> 100 µM,> 100 µM,> 100 µM,–
Cc1c2cc[n+](C)cc2c(C)c2c1[nH]c1ccccc12,68.7 µM and 53.5 µM,> 100 µM and 99 µM,11 µM and 10.1 µM,78.1 µM and 75.3 µM,43.1 µM and 40.2 µM,21.9 µM and 39.5 µM,56.6 µM and 30.2 µM,62 µM and 36.7 µM,4.83 µM and 7.1 µM,5.92 µM and 4.85 µM,88 µM and 19.4 µM
CN(C)c1ccc(C(c2ccc(N(C)C)cc2)c2ccc([N+](=O)[O-])cc2)cc1,> 100 µM,> 100 µM,> 100 µM,> 100 µM,> 100 µM,> 100 µM,> 100 µM,> 100 µM,> 100 µM,> 100 µM,–
COc1ccc2nc3c([N+](=O)[O-])ccc4c3c(c2c1)NCCN4C,3.85 µM,2.96 µM,6.44 µM,4.52 µM,> 100 µM,8.75 µM,27 µM,0.878 µM,6.5 µM,2.86 µM,–
Cc1nnc2c3c(-c4ccccc4)c(-c4ccccc4)oc3nc(N(C)C)n12,> 100 µM,> 100 µM,> 100 µM,> 100 µM,> 100 µM,> 100 µM,> 100 µM,> 100 µM,> 100 µM,> 100 µM,–
NNC(=O)c1ccccc1NC(=O)/C(=C/c1ccccc1)NC(=O)c1ccccc1,> 100 µM,> 100 µM,> 100 µM,> 100 µM,> 100 µM,> 100 µM,> 100 µM,> 100 µM,> 100 µM,> 100 µM,–
Cc1ccc2c3c1O[C@H]1c4nc5ccccc5cc4C[C@@]4(O)[C@@H](C2)N(CC2CC2)CC[C@]314,30.7 µM,18.2 µM,58.3 µM,> 100 µM,23 µM,22.3 µM,15.5 µM,21.1 µM,> 100 µM,19.2 µM,–
O=[N+]([O-])C(=C(NCc1ccccc1)NCc1ccccc1)C(Cl)=C(Cl)Cl,> 100 µM,62.8 µM,> 100 µM,> 100 µM,54.2 µM,> 100 µM,52 µM,98.4 µM,> 100 µM,36 µM,–
C=C1CCCCCCCCCCC1S(=O)c1ccccc1 (stereo unspecified),> 100 µM,> 100 µM,> 100 µM,33.4 µM,82.6 µM,65.5 µM,78.5 µM,64.5 µM,> 100 µM,> 100 µM,–
